Measurements as given in patent publication US11976074B1, “Crystalline salts of Linsitinib” (Sling Therapeutics, Inc., priority 2023, dated 2024).
≈ marks a conversion by molar mass, not a printed value.

What was measured:
[1] = pH-solubility of linsitinib free base and selected salts (pH 1.5 to 6.5, overnight equilibration, HPLC); assay type: physicochemical; conditions: for solubility: aqueous solution, thermodynamic from solid, overnight equilibration, read-out: Solubility; for Final pH: after overnight equilibration
Description: The pH-solubility of selected salts (Phosphate 1, L-Malate 1, Esylate 1, and Esylate 2) was evaluated and compared with linsitinib free base. The solubility analysis was conducted in a manner consistent with a previous study that was performed with linsitinib free base. Aqueous solutions were prepared between pH 1.5 and pH 6.5 in 0.5 pH unit increments via titration of the solution using NaOH and HCl. For each salt or the free base, an attempt was made to reach saturation in each of the solutions by adding sufficient material to the solution such that excess solids remained. If saturation was achieved, the pH of the solution was measured and adjusted to the target pH and additional material was added if needed. The samples were then equilibrated overnight. The final pH of the solution was measured, the solids were filtered and selected samples were analyzed by PXRD. The concentration of linsitinib in the filtrate was quantitated by HPLC (diluted as needed). In some cases, significant drift (+1 pH unit or more) of the final pH from the target pH was observed after the overnight equilibration.
The pH-solubility data is shown graphically in FIG. 89. […] Indeed, it should be noted that in the majority of the low pH systems, higher initial dissolution/solubility was observed followed by precipitation of the material from solution upon longer equilibration.

[2] = Equilibrium solubility in bio-relevant media (FaSSGF pH 1.6, FaSSIF pH 6.5); assay type: physicochemical; conditions: for Solubility compared with the free base: in words; for solubility: thermodynamic from solid, read-out: Solubility
Excerpt: In addition to the pH-solubility data, a comparison of the equilibrium solubility of linsitinib free base and salts in two bio-relevant media (Table 28), fasted state simulated gastric fluid (FaSSGF pH 1.6) and intestinal fluid (FaSSIF pH 6.5) was completed. […] A saturated solution of Esylate 1 was not achieved during this study and therefore the equilibrium solubility could be higher than determined. It should be noted that variability of almost a full pH unit was noted among the samples making a direct comparison more challenging.

[3] = Water activity boundary between malate forms; assay type: physicochemical; conditions: or 90% relative humidity
Description: Malate 2, Malate 4, and Malate 5 were all obtained from high water activity conditions and are suspected to be hydrated forms. Based on the weight loss in the TG thermograms of Malate 4 and Malate 5, they could be di-hydrates. The water activity boundary between Malate 4 and Malate 1 was determined to be approximately 0.9 water activity, or 90% relative humidity. At a water activity of 0.8, Malate 1 was obtained; however, there were additional peaks present by PXRD. […]

[4] = cited from earlier work
[5] = cited from earlier work; remark: listed apart in the source
[6] = Heating experiments with selected malate samples; assay type: physicochemical
Description: Based on the thermal data, Malate 4 and Malate 5 were heated at […] for 15 minutes. The solids were re-analyzed by PXRD after heating to investigate any form change upon dehydration. […] While there was an insufficient amount of sample to further characterize Malate 7, based on the conditions upon which it was generated, it could be a lower hydrate or an anhydrous form.

[7] = Thermogravimetric analysis (TGA); assay type: physicochemical; conditions: start to 65° C.
Description: The TG analysis was carried out using a TA Instruments […] Discovery Series instrument. The instrument balance was calibrated using class M weights and the temperature calibration was performed using alumel. The nitrogen purge was 10 mL per minute at the balance and 25 mL per minute at the furnace. The sample was placed into a pre-tared platinum pan and heated from approximately 25° C. to 300° C. at a rate of 10° C. per minute.

[8] = Polymorph screen of linsitinib malate (PXRD/XRPD result); assay type: physicochemical; conditions: polymorph screen of linsitinib malate; slurry, cooling, precipitation or lyophilization; solvent and conditions per sample no.; listed as 4-10
Description: A Rigaku SmartLab X-Ray Diffractometer was configured in Bragg-Brentano reflection geometry equipped with a beam stop and knife edge to reduce incident beam and air scatter.
A polymorph screen of linsitinib malate was conducted. Experiments were designed to target thermodynamically stable forms and therefore utilized techniques such as long-term slurry, cooling, anti-solvent addition, and evaporation. Reaction crystallization experiments with linsitinib free base and L-malic acid were also conducted. Additionally, non-crystalline material was used as an alternative starting material as this can provide access to polymorphs that would not be accessible from crystalline starting material.

[9] = pH 4, aqueous buffer, target pH 4.0, * = clear solution, not equilibrium value
[10] = pH 4.5, aqueous buffer, target pH 4.5, * = clear solution, not equilibrium value
[11] = pH 5, aqueous buffer, target pH 5.0
[12] = pH 5.5, aqueous buffer, target pH 5.5
[13] = pH 6, aqueous buffer, target pH 6.0
[14] = pH 6.5, aqueous buffer, target pH 6.5
[15] = pH adjusted with NaOH and HCl, pH 1.5, aqueous buffer, target pH 1.5, * = clear solution, not equilibrium value
[16] = pH adjusted with NaOH and HCl, pH 2, aqueous buffer, target pH 2.0, * = clear solution, not equilibrium value
[17] = pH adjusted with NaOH and HCl, pH 2.5, aqueous buffer, target pH 2.5, * = clear solution, not equilibrium value
[18] = pH adjusted with NaOH and HCl, pH 3, aqueous buffer, target pH 3.0, * = clear solution, not equilibrium value
[19] = pH adjusted with NaOH and HCl, pH 3.5, aqueous buffer, target pH 3.5, * = clear solution, not equilibrium value
[20] = fasted state simulated gastric fluid (FaSSGF), pH 1.6, fassgf or other biorelevant, FaSSGF (pH 1.6)
[21] = fasted state simulated intestinal fluid (FaSSIF), pH 6.5, fassif, FaSSIF (pH 6.5)

Row | Compound | solubility [1, 9] [µg/mL] | solubility [1, 10] [µg/mL] | solubility [1, 11] [µg/mL] | solubility [1, 12] [µg/mL] | solubility [1, 13] [µg/mL] | solubility [1, 14] [µg/mL] | solubility [1, 15] [µg/mL] | solubility [1, 16] [µg/mL] | solubility [1, 17] [µg/mL] | solubility [1, 18] [µg/mL] | solubility [1, 19] [µg/mL] | Final pH ([1]; target pH 1.5) | Final pH ([1]; target pH 2.0) | Final pH ([1]; target pH 2.5) | Final pH ([1]; target pH 3.0) | Final pH ([1]; target pH 3.5) | Final pH ([1]; target pH 4.0) | Final pH ([1]; target pH 4.5) | Final pH ([1]; target pH 5.0) | Final pH ([1]; target pH 5.5) | further results
1 | C[C@]1(O)C[C@@H](c2nc(-c3ccc4ccc(-c5ccccc5)nc4c3)c3c(N)nccn32)C1.O=C(O)C[C@H](O)C(=O)O [L-Malate 1] | 1340 | 337 | 274 | 192 | 122 | 16.5 | 82300 | 74000 | 39000 | 15300 | 4290 | 1.45 | 2.02 | 2.37 | 2.80 | 3.08 | 3.38 | 5.05 | 5.16 | 5.32 | Solubility compared with the free base or Phosphate 1 ([1]; lower pH (<3)): significantly higher solubility; Final pH ([1]; target pH 6.0): 5.50; Final pH ([1]; target pH 6.5): 5.18; Final pH ([2]; FaSSGF (pH 1.6)): 2.97; Solubility compared with the free base ([2]; FaSSGF (pH 1.6)): largely comparable; Final pH ([2]; FaSSIF (pH 6.5)): 5.46; Solubility compared with the free base ([2]; FaSSIF (pH 6.5)): higher solubility than the free base; solubility [2, 20]: 8130 µg/mL; solubility [2, 21]: 44 µg/mL; Water activity boundary between Malate 4 and Malate 1 [3]: approximately 0.9 water activity
2 | C[C@]1(O)C[C@@H](c2nc(-c3ccc4ccc(-c5ccccc5)nc4c3)c3c(N)nccn32)C1 [Linsitinib free base, Cis-3-[8-amino-1-(2-phenyl-7-quinolinyl)imidazo[1,5-a]pyrazin-3-yl]-1-methyl-cyclobutanol, reference compound] | 116 | 5.1 | 1.2 | 1.7 | 1 | 1.2 | 54000 | 23600 | 17600 | 15000 | 1730 | 1.52 | 2.04 | 2.33 | 2.76 | 3.64 | 4.18 | 5.54 | 6.18 | 6.43 | Final pH ([1]; target pH 6.0): 7.02; Final pH ([1]; target pH 6.5): 6.43; Final pH ([2]; FaSSGF (pH 1.6)): 4.04; Final pH ([2]; FaSSIF (pH 6.5)): 6.57; solubility [2, 20]: 7670 µg/mL (≈ 18.2 mM); solubility [2, 21]: 25 µg/mL (≈ 0.0593 mM); Hygroscopicity ([4]; anhydrous/non-solvated free base form): non-hygroscopic; Solubility under acidic conditions [4]: good solubility; Permeability [5]: good permeability
3 | C[C@]1(O)C[C@@H](c2nc(-c3ccc4ccc(-c5ccccc5)nc4c3)c3c(N)nccn32)C1.O=C(O)C[C@H](O)C(=O)O [Malate 4] | – | – | – | – | – | – | – | – | – | – | – | – | – | – | – | – | – | – | – | – | XRPD result after heating ([6]; 92° C., 15 min): Malate 7; Form change upon heating (PXRD) ([6]; heated for 15 minutes): dehydrate to a new form, designated as Malate 7; Water activity boundary between Malate 4 and Malate 1 [3]: approximately 0.9 water activity; TGA Results (weight loss) [7]: 7.3%, start to 65 °C; PXRD Results [8]: Malate 4
